Results taken from publication PMC3589633 (Investigational New Drugs, 2012).
Read-outs that look alike come from different tables or passages of the source. Marks after values point to notes of the source that are not given here.

Tests used:
[1] = tested on: advanced solid tumors; test: Antitumor activity by RECIST; type: in vivo, human
[2] = Plasma pharmacokinetics, noncompartmental analysis; type: in vivo, human; settings: for clearance: total body clearance
[3] = tested on: patients with advanced or metastatic solid tumors; settings: in vivo
[4] = tested on: HER2; settings: read-out: half-maximal inhibitory concentration (IC50); cited from earlier work
[5] = tested on: HER4; settings: read-out: half-maximal inhibitory concentration (IC50); cited from earlier work
[6] = tested on: patients with advanced solid tumors; settings: cited from earlier work
[7] = tested on: patients with advanced or metastatic solid tumors
[8] = 20 mg q.d. oral, Day 27 steady state, n = 3
[9] = 60 mg q.d. oral, Day 27 steady state, individual value from one patient

## CN(C)C/C=C/C(=O)Nc1cc2c(Nc3ccc(F)c(Cl)c3)ncnc2cc1O[C@H]1CCOC1 [afatinib]
[1]; 40 mg dose cohort
  patients with stable disease: Five
[1]; 29 evaluable patients, RECIST
  objective responses: No objective responses
[1]; one in 20 mg/d group, two in 40 mg/d group
  patients remaining on treatment for more than 16 weeks: Three
[1]; one ovarian cancer patient, 20 mg group
  duration of stable disease: 204 days
[2]; 10 mg q.d. oral, Day 27 steady state, N = 2
  Cpre,ss gMean: 2.64^b ng/mL
[2]; 10 mg q.d. oral, Day 27 steady state, n = 3
  CL/F,ss gMean: 2980 mL/min
[2]; [8]
  CL/F,ss gMean: 755 mL/min
  Cpre,ss gMean: 12.5 ng/mL
[2]; 40 mg q.d. oral, Day 27 steady state, N = 16
  Cpre,ss gMean: 16.1^c ng/mL
[2]; [9]
  CL/F,ss: 567 mL/min
  Cpre,ss: 52.3 ng/mL
[2]; 10-60 mg, steady state
  dose-proportionality: no obvious deviation from dose-proportionality
[2]; Treatment Period 1, once-daily oral
  steady-state reached: ≤ 8 days
[2]; human, plasma, oral
  half-life: 37.4 h
[2]; human, plasma, oral, apparent volume of distribution during the terminal phase, overall gMean, all groups (data not shown)
  Vd: 3630 L
[2]; human, plasma, oral, gMean, range across dose groups
  clearance: 567 to 2980 mL/min
[2]; human, plasma, oral, overall gMean, across all groups (data not shown)
  clearance: 1330 mL/min
[2]; human, plasma, po
  half-life: 34 to 48 h
[3]; human
  Patients discontinued owing to DLT: 2 (6.7) n, %
  Patients discontinued owing to Other AEs: 3 (10.0) n, %
  dermatitis acneiform, treatment-related AE, patients: 33.3%
  diarrhea, treatment-related AE, patients: 76.7%
  fatigue, treatment-related AE, patients: 33.3%
  mucosal inflammation, treatment-related AE, patients: 43.3%
  onset of diarrhea during the first treatment course, patients: 70%
  patients with AEs considered related to study medication: 29
  patients with at least one AE: 30
[3]; human, 28 days
  Patients with DLT events during the initial 28-day treatment period: 3 n
[3]
  cardiac events: No cardiac events were reported
  patients with DLT, in total: three patients
[4]
  IC50: 14 nM
[5]
  IC50: 1 nM
[6]; 2-week on/2-week off schedule
  dose that could be safely administered: 70 mg/day
[6]; 3-week on/1-week off schedule
  dose administered with tolerable side effects: 40 mg/day
  maximum tolerated dose (MTD): 55 mg/day
[6]; once-daily, 2-week on/off schedule
  recommended Phase II dose (RP2D): 70 mg
[7]; 10 mg/day
  Patients discontinued owing to Disease progression: 4 (80) n, %
[7]; 20 mg/day
  Patients discontinued owing to Disease progression: 3 (100) n, %
[7]; 40 mg/day
  Patients discontinued owing to Disease progression: 14 (73.7) n, %
[7]; 60 mg/day
  Patients discontinued owing to Disease progression: 1 (33.3) n, %
[7]; Total
  Patients discontinued owing to Disease progression: 22 (73.3) n, %
[7]; continuous once-daily oral, 28-day cycles
  MTD: 40 mg/day
